Data: US20210253598A1, “ARYL ANNULATED MACROCYCLIC INDOLE DERIVATIVES” (priority 2017, published 2021)
Read-outs that look alike come from different tables or passages of the source.

Columns and labels:
[1] = tested on: SUDHL5; test: Induction of cytotoxicity in SUDHL5 cells, CellTiter-Glo (Assay 6); format: cell-based; conditions: SUDHL5, 5 hours incubation, median, read-out: Cytotox SUDHL5 [M] (median)
Description: (§1) Induction of Cytotoxicity Upon Treatment of Cells with Selected Compounds
(§2) In principle, compounds that induce apoptosis will concomitantly induce cell cytotoxicity. Therefore, cytotoxicity assays were run in parallel in SUDHL5 and SUDHL10 cells.
(§3) As a control, medium without cells was also added to the plate. Cells were incubated in a humidified incubator at 37° C. overnight. […] Rim wells were excluded. The cells were incubated for 5 hours in a humidified incubator at 37° C. After this incubation, 30 μl of CellTiter-Glo® Luminescent Cell Viability reagent (Promega, G7573) was added to each well using the Multidrop Combi Reagent Dispenser, followed by 15 minutes incubation on a shaker at room temperature. Finally, luminescence was read at 0.1 ms, with a gain of 3000 using the PHERAstar FS microplate reader (BMG Labtech).

[2] = tested on: SUDHL5; test: Induction of caspase-3/7 activity in SUDHL5 cells (Assay 4); format: cell-based; conditions: SUDHL5, 3 hours treatment, Caspase-Glo 3/7, median, read-out: Caspase SUDHL5 [M] (median)
Description: (§4) Induction of Caspase-3/7 Activity Upon Treatment of Cells with Selected Compounds
(§5) The BH3-domain of MCL-1 sequesters pro-apoptotic proteins, thereby inhibiting apoptosis. In contrast, MCL-1 inhibitors are expected to antagonize this effect leading to an increase in apoptosis, which can be determined by measuring the activity of caspase-3/7.
(§6) The activity of caspase-3/7 was determined in DLBCL (Diffuse large B-cell lymphoma) cell lines (SUDHL5 and SUDHL10) upon treatment with different compounds, using the Caspase-Glo® 3/7 reagent from Promega (G8092).
(§7) As a control, medium without cells was also added to the plate. Cells were incubated in a humidified incubator at 37° C. overnight.
(§8) Rim wells were excluded. The cells were incubated for 3 hours in a humidified incubator at 37° C. After this incubation, 30 μl of Caspase-Glo® 3/7 reagent (Promega G8092) was added to each well using the Multidrop Combi Reagent Dispenser, followed by 1 hour incubation at 37° C. Finally, luminescence was read at 0.1 ms, with a gain of 3000 using the PHERAstar FS microplate reader (BMG Labtech).
(§9) For the evaluation of the results, the background measured with “medium-only” was subtracted from all other values. Then, the values were normalized to DMSO-only treated cells (every value was divided by the mean of the DMSO control).

[3] = tested on: SUDHL10; test: Induction of cytotoxicity in SUDHL10 cells, CellTiter-Glo (Assay 6); format: cell-based; conditions: SUDHL10, 5 hours incubation, median, read-out: Cytotox SUDHL10 [M] (median)
Description: as §1, §2, §3

[4] = target: MCL-1 (Homo sapiens, UniProt Q07820, K194A/K197A/R201A); test: Protein-protein interaction assay MCL-1/Noxa BH3 peptide, TR-FRET (MCL-1 assay, Assay 1); format: binding; conditions: MCL-1 Assay [M] (median), MBP-MCL-1 / Noxa BH3 peptide
Description: The dose-dependent inhibition by the compounds described in this invention of the interaction between MCL-1 and the BH3 domain of Noxa (both human) was determined using a steady state binding competition assay with time-resolved fluorescence energy transfer (TR-FRET) readout. For that purpose MCL-1 (amino acids 173-321, N-terminal fused to Maltose Binding Protein (MBP), SEQ ID 1) and a synthetic Noxa BH3-derived peptide of sequence Biotin-PEG2-PEG2-PAELEVE-Nva-[…]-amide (SEQ ID 2) served as protein receptor and tracer ligand respectively. The MBP-MCL-1 was purchased from Beryllium (Bedford, Mass., USA). The expression and purification of this protein construct has been described elsewhere (DOI:10.1371/journal.pone.0125010). The Noxa BH3-derived peptide can be obtained from e.g. Biosyntan (Berlin, Germany).
For that, 100-fold concentrated DMSO solutions were prepared by serial dilutions (1:3.4) of a 2 mM stock solution in a clear, 384-well microtiter plate (Greiner Bio-One, Frickenhausen, Germany). From there, 50 nl were transferred in a dark test plate (Greiner Bio-One, Frickenhausen, Germany). The assay was initiated by addition of 2 μl of a 2,5-fold concentrated MBP-MCL-1 solution (usually for a 1 nM end concentration in 5 μl reaction volume) in aqueous assay buffer [50 mM Tris/HCl pH 7, 100 mM sodium chloride (NaCl), 50 mM potassium fluoride (KF), 0.005% Tween-20, 2 mM DTT, 0.1% bovine gamma globulin (BGG)] to the compounds in the assay plate. This was followed by a 10-minute incubation step at 22° C. for pre-equilibration of the putative complex between MBP-MCL-1 and the compounds.
The mixture was incubated in the dark for one hour at 22° C. and then overnight at 4° C. The formation of MCL-1/Noxa complexes was determined by measuring the resonance energy transfer of the anti-MBP-Eu-cryptate antibody to the streptavidin-XL665 present in the reaction.
The resulting data (ratio) were normalized, taking 0% inhibition as the mean value of control measurements (usually 32 data points) where all reagents were included. In this case 50 nl DMSO were used instead of compounds. […] IC50 values were determined by regression analysis based on a 4 parameter equation (minimum, maximum, IC50, Hill; Y=Max+(Min−Max)/(1+(X/IC50)^Hill) using the Screener Software (Genedata).

[5] = tested on: SUDHL10; test: Induction of caspase-3/7 activity in SUDHL10 cells (Assay 4); format: cell-based; conditions: SUDHL10, 3 hours treatment, Caspase-Glo 3/7, median, read-out: Caspase SUDHL10 [M] (median)
Description: as §4, §5, §6, §7, §8, §9

[6] = tested on: SUDHL5; test: Anti-proliferative effect in SUDHL5 cells, CellTiter-Glo (Assay 7); format: cell-based; conditions: SUDHL5, 72 hours incubation, CellTiter-Glo, median, read-out: Antiproli SUDHL5 [M] (median)
Description: Assessment of the Anti-Proliferative Effect of Compounds in Different Cell Lines
The impact of compounds on the proliferation of different cell lines was assessed using the CellTiter-Glo® Luminescent Cell Viability reagent from Promega (G7573).
In parallel, cells were plated in a reference (day 0) plate for time zero determination. Cells were incubated in a humidified incubator at 37° C. overnight.
Rim wells were excluded. The cells were incubated for 72 hours in a humidified incubator at 37° C. The day 0 plate was measured by adding 30 μL/well of CTG solution (CellTiter-Glo® Luminescent Cell Viability reagent, Promega G7573) to time zero wells in the reference plate followed by a 10 minutes incubation and luminescence reading at 0.1 ms. using the PHERAstar FS microplate reader (BMG Labtech).
After 72 hours incubation, the treated plates were measured in the same way as the day 0 plate mentioned above. The Bella DRC Master Sheet was used to calculate IC50s, with CI=day 0 values and C0=DMSO control values.

Chain of MCL-1 (Q07820 173-321 K194A/K197A/R201A, looked up): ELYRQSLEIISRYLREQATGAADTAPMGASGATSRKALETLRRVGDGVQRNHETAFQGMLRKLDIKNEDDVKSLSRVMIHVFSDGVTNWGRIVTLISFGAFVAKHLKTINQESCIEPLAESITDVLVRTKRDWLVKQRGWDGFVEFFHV

| SMILES | IC50 [1] | EC50 [2] | IC50 [3] | IC50 [4] | EC50 [5] | IC50 [6] | IC50 ([1]; Homo sapiens, SU-DHL-5, 5 h) | EC50 ([2]; Homo sapiens, SU-DHL-5, 3 h) | IC50 ([6]; Homo sapiens, SU-DHL-5, 72 h) | IC50 ([3]; Homo sapiens, SU-DHL10, 5 h) | EC50 ([5]; Homo sapiens, SU-DHL10, 3 h) |
| --- | --- | --- | --- | --- | --- | --- | --- | --- | --- | --- | --- |
| Cc1c2c(nn1C)CN(C(=O)NC1CCOCC1)Cc1ccccc1Cn1c(C(=O)O)c(CCCOc3cccc4ccccc34)c3cccc-2c31 (single isomer, unassigned; enantiomer 2) [Example 26, (−)-4,5-Dimethyl-17-[3-(naphthalen-1-yloxy)propyl]-8-(tetrahydro-2H-pyran-4-ylcarbamoyl)-7,8,9,14-tetrahydro-5H-indolo[1,7-bc]pyrazolo[4,3-e][2,8]benzodiazacycloundecine-16-carboxylic Acid (Enantiomer 2)] | 1.6e-05 M | 1.8e-05 M | > 3.3e-05 M | 3.8e-08 M | > 3.3e-05 M | – | – | – | – | – | – |
| Cc1c2c(nn1C)COCc1cccnc1Cn1c(C(=O)O)c(CCCOc3cccc4ccccc34)c3cccc-2c31 (single isomer, unassigned; enantiomer 1) [Example 5, 4,5-Dimethyl-17-[3-(naphthalen-1-yloxy)propyl]-5,7,9,14-tetrahydropyrazolo[4′,3′:9,10]-pyrido[3′,2′:3,4][1,6]oxazacycloundecino[8,7,6-hi]indole-16-carboxylic Acid (Enantiomer 1)] | 4.6e-06 M | 5.4e-06 M | 1.3e-05 M | 2.9e-09 M | 1.4e-05 M | 5.2e-06 M | – | – | – | – | – |
| Cc1c2c(nn1C)COCc1cccnc1Cn1c(C(=O)O)c(CCCOc3cccc4ccccc34)c3cccc-2c31 (single isomer, unassigned; enantiomer 2) [Example 6, 4,5-Dimethyl-17-[3-(naphthalen-1-yloxy)propyl]-5,7,9,14-tetrahydropyrazolo[4′,3′:9,10]-pyrido[3′,2′:3,4][1,6]oxazacycloundecino[8,7,6-hi]indole-16-carboxylic Acid (Enantiomer 2)] | > 1.9e-05 M | > 2.2e-05 M | > 3.3e-05 M | 1.1e-08 M | > 3.3e-05 M | 1.2e-05 M | – | – | – | – | – |
| Cc1c2c(nn1C)COCc1cccnc1Cn1c(C(=O)O)c(CCCOc3cccc4ccccc34)c3cccc-2c31 (racemic) [Example 4, (rac)-4,5-Dimethyl-17-[3-(naphthalen-1-yloxy)propyl]-5,7,9,14-tetrahydropyrazolo-[4′,3′:9,10]pyrido[3′,2′:3,4][1,6]oxazacycloundecino[8,7,6-hi]indole-16-carboxylic Acid] | – | – | – | 5.3e-09 M | – | – | 1.2e-05 M | 1.5e-05 M | 1.4e-05 M | > 2.3e-05 M | > 3.2e-05 M |
| Cc1c2c(nn1C)CN(C(=O)NCC1CCOCC1)Cc1ccccc1Cn1c(C(=O)O)c(CCCOc3cccc4ccccc34)c3cccc-2c31 (single isomer, unassigned; enantiomer 1) [Example 28, (+)-4,5-Dimethyl-17-[3-(naphthalen-1-yloxy)propyl]-8-[(tetrahydro-2H-pyran-4-ylmethyl)carbamoyl]-7,8,9,14-tetrahydro-5H-indolo[1,7-bc]pyrazolo[4,3-e][2,8]benzodiazacycloundecine-16-carboxylic Acid (Enantiomer 1)] | > 3.3e-05 M | > 3.3e-05 M | – | 2.8e-07 M | – | – | – | – | – | > 3.3e-05 M | > 3.3e-05 M |
| Cc1c2c(nn1C)COCc1ncccc1Cn1c(C(=O)O)c(CCCOc3cccc4ccccc34)c3cccc-2c31 (racemic) [Example 7, (rac)-4,5-Dimethyl-17-[3-(naphthalen-1-yloxy)propyl]-5,7,9,14-tetrahydropyrazolo[4′,3′:9,10]-pyrido[2′,3′:3,4][1,6]oxazacycloundecino[8,7,6-hi]indole-16-carboxylic Acid] | – | – | – | – | – | – | 3.6e-06 M | 3e-06 M | 4.6e-06 M | 1.5e-05 M | 1.6e-05 M |
| Cc1c2c(nn1C)CN(C(=O)NCC1CCOCC1)Cc1ccccc1Cn1c(C(=O)O)c(CCCOc3cccc4ccccc34)c3cccc-2c31 (single isomer, unassigned; enantiomer 2) [Example 29, (−)-4,5-Dimethyl-17-[3-(naphthalen-1-yloxy)propyl]-8-[(tetrahydro-2H-pyran-4-ylmethyl)carbamoyl]-7,8,9,14-tetrahydro-5H-indolo[1,7-bc]pyrazolo[4,3-e][2,8]benzodiazacycloundecine-16-carboxylic Acid (Enantiomer 2)] | 1.4e-05 M | 1e-05 M | 2.3e-05 M | 3e-08 M | 2.3e-05 M | – | – | – | – | – | – |
| Cc1c2c(nn1C)COCc1ccccc1Cn1c(C(=O)O)c(CCCOc3cccc4ccccc34)c3ccc(Cl)c-2c31 (single isomer, unassigned; enantiomer 2) [Example 38, (+)-3-Chloro-4,5-dimethyl-17-[3-(naphthalen-1-yloxy)propyl]-5,7,9,14-tetrahydroindolo[7,1-fg]pyrazolo[3,4-d][2,8]benzoxazacycloundecine-16-carboxylic Acid (Enantiomer 2)] | 2.3e-06 M | 1.7e-06 M | 6.8e-06 M | 7.1e-09 M | 1.1e-05 M | – | – | – | – | – | – |
